The nature of data set [1]: Solubility of aripiprazole in the SMEDDS DIM formulation.
The conditions of data set [2]: Clin. Cancer Res. 10:5233-5241 (2004); cited from earlier work.
Data set [3] has as its system Moderate-to-Severe TBI in the Sprague Dawley Rat. As to the kind of experiment: Extracellular Vesicle (EV) isolation and measurement after lateral fluid percussion TBI. It is filed as in vivo. Particulars: plasma EVs 1 day post-surgery, NTA. The text has this:
(§1) Evaluation of 3,3′-diindolylmethane (DIM) in a clinically relevant animal model of Traumatic Brain Injury (TBI) utilized the Lateral Fluid Percussion (LFP) brain injury method. LFP is the most established and frequently used method for evaluating mixed focal and diffuse brain injury (Thompson H J, Lifshitz J, Marklund N, Grady M S, Graham D I, Hovda D A, McIntosh T K. Lateral fluid percussion brain injury: a 15-year review and evaluation. J Neurotrauma. 2005 January; 22(1):42-75.). Using rats, the parasagittal LFP model recreates the physiological, pathological, and neurobehavioral sequela of TBI in humans. […] Over the days following surgery, rats were assessed for sensorimotor deficits, associative learning and memory, cortical and hippocampal edema, Extracellular Vesicle (EV) levels, and histopathological damage. […]
(§2) Approximately 12-24 h after the preparation surgery, the rats were anesthetized with 3% isoflurane, 70% nitrous oxide and 30% oxygen, intubated, connected to a respirator, and ventilated to be maintained on 1-3% isoflurane in a mixture of 70% nitrous oxide and oxygen. […] Following administration of pancuronium, TBI DIM Premix and Vehicle group rats inspired oxygen was reduced to 21% to maintain blood pO2 levels at approximately 85-95 mmHg. pCO2 levels were monitored to remain at physiological levels of 34 to 46 mmHg. […]

The test system is the same in data set [4]. Kind of data set: Histology analysis (H&E, NeuN) after lateral fluid percussion TBI. Particulars: 10 days post FPI. It is filed as in vivo.
From the text: as §1, §2

The conditions of data set [5]: Eur. J. Pharmacol. 2022; 919:174812; cited from earlier work.

Regarding `O=C1CCc2ccc(OCCCCN3CCN(c4cccc(Cl)c4Cl)CC3)cc2N1` [aripiprazole], in data set [1], the “Solubility of the aripiprazole in the SMEDDS DIM formulation” value was “approximately 1.5%”. Moreover, the “Dissolution of aripiprazole in SMEDDS DIM, observation” value in data set [1] (1.2% (10 mg aripiprazole, 0.81 grams SMEDDS DIM), stored overnight, warmed to about 35 degrees C.) was “all had dissolved”; in data set [1] (2.0% (10 mg aripiprazole, 0.49 grams SMEDDS DIM), stored overnight, warmed to about 35 degrees C.) it was “had not quite dissolved”; in data set [1] (5.0% (25 mg aripiprazole, 0.475 grams SMEDDS DIM)), “white solids clearly present”; in data set [1] (10% (50 mg aripiprazole, 0.45 grams SMEDDS DIM)) it was “white solids clearly present”. Also, the “Aripiprazole still in suspension” value in data set [1] (2.0% (10 mg aripiprazole, 0.49 grams SMEDDS DIM)) is reported as “less than 2 mg”. Besides, in data set [1] (in standard dose of 100 mg DIM contained in 825 mg of the SMEDDS DIM), the “Dose of aripiprazole that can be dissolved” value was “up to 10 mg”.
As for `OCc1c[nH]c2ccccc12` [indole-3-carbinol], in data set [2], the Conversion in vivo result is “converts to DIM and LTR in vivo”.
Regarding `c1ccc2c(Cc3c[nH]c4ccccc34)c[nH]c2c1` [DIM, 3,3′-diindolylmethane], in data set [3] (versus TBI Vehicle, p=0.0415), the “EV concentration (numbers)” value was “prevented the significant increase in EV numbers”. Further, the EV particle size entry in data set [3] (versus untreated TBI animals, p=0.0117) is recorded as “maintenance of a larger EV particle size”. Besides, the “Animals with cortical contusion absent” value in data set [4] worked out at 50%. For the same compound, in data set [5], the Anti-thrombotic activity entry is on record as “anti-thrombotic activity” and the Bleeding time result is reported as “prolong bleeding time”.

Values taken from patent US12171745B2, “Compositions and methods for treating non-hemorrhagic closed head injury” (Boulder BioScience LLC, priority 2022, dated 2024).
